Measured values taken from PubChem BioAssay AID248 (DTP/NCI, 2004).
Where “and” joins values, the source holds several entries; their conditions need not be identical. Identical values can stand only once. Inconclusive results and toxic doses are left out. Peptide text beside a SMILES is read from it.

System: L1210 leukemia ip in BDF1 mice, survival T/C
Experiment: NCI In Vivo Anticancer Drug Screen. Data for tumor model L1210 Leukemia (intraperitoneal) in B6D2F1 (BDF1) mice
Details: endpoint: mean survival time, higher = longer survival
Procedure, shortened: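 In this screen, tumor-bearing mice given compound are compared to those given vehicle, and their survival values are reported as a treated-to-control quotient.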

[1] = dose: 50.0 mg/kg/injection, schedule: Q01DX001 (ip), vehicle: saline
[2] = dose: 100.0 mg/kg/injection, schedule: Q01DX009 (ip), vehicle: Klucel (hydroxypropylcellulose) (HPC)
[3] = dose: 100.0 mg/kg/injection, schedule: Q04DX003 (ip), vehicle: Klucel (hydroxypropylcellulose) (HPC)
[4] = dose: 200.0 mg/kg/injection, schedule: Q01DX009 (ip), vehicle: Klucel (hydroxypropylcellulose) (HPC)
[5] = dose: 200.0 mg/kg/injection, schedule: Q04DX003 (ip), vehicle: Klucel (hydroxypropylcellulose) (HPC)
[6] = dose: 400.0 mg/kg/injection, schedule: Q01DX009 (ip), vehicle: Klucel (hydroxypropylcellulose) (HPC)
[7] = dose: 400.0 mg/kg/injection, schedule: Q04DX003 (ip), vehicle: Klucel (hydroxypropylcellulose) (HPC)
[8] = dose: 100.0 mg/kg/injection, schedule: Q01DX001 (ip), vehicle: saline
[9] = dose: 200.0 mg/kg/injection, schedule: Q01DX001 (ip), vehicle: saline
[10] = dose: 400.0 mg/kg/injection, schedule: Q01DX001 (ip), vehicle: saline
[11] = dose: 100.0 mg/kg/injection, schedule: Q04DX002 (ip), vehicle: saline with Tween-80
[12] = dose: 200.0 mg/kg/injection, schedule: Q04DX002 (ip), vehicle: saline with Tween-80
[13] = dose: 400.0 mg/kg/injection, schedule: Q04DX002 (ip), vehicle: saline with Tween-80

SMILES: O=c1[nH]cc(CC(F)C(F)(F)F)c(=O)[nH]1 (stereo unspecified)
- T/C (dose: 60.0 mg/kg/injection, schedule: Q01DX001 (ip), vehicle: DMSO): 91 % of control
- T/C (dose: 120.0 mg/kg/injection, schedule: Q01DX001 (ip), vehicle: DMSO): 105 % of control

SMILES: CC1(C)OCC2OC3(C(=O)O)OC(C)(C)OC3C2O1 (stereo unspecified)
- T/C (dose: 25.0 mg/kg/injection, schedule: Q01DX009 (ip), vehicle: water): 105 % of control
- T/C (dose: 50.0 mg/kg/injection, schedule: Q01DX009 (ip), vehicle: water): 101 % of control
- T/C (dose: 100.0 mg/kg/injection, schedule: Q01DX009 (ip), vehicle: water): 96 % of control
- T/C (dose: 200.0 mg/kg/injection, schedule: Q01DX009 (ip), vehicle: water): 101 % of control
- T/C (dose: 400.0 mg/kg/injection, schedule: Q01DX009 (ip), vehicle: water): 95 % of control

SMILES: CC(C)NC(C)Cc1ccccc1 (stereo unspecified)
- T/C (dose: 25.0 mg/kg/injection, schedule: Q01DX001 (ip), vehicle: saline): 93 % of control
- T/C [1]: 91 % of control

SMILES: O=C(NCCCl)Nc1cccc2cc3ccccc3cc12
- T/C [2]: 95 % of control
- T/C [3]: 96 % of control
- T/C [4]: 103 % of control
- T/C [5]: 96 % of control
- T/C [6]: 95 % of control
- T/C [7]: 102 % of control

SMILES: COC(=O)C(C)NC(=O)C(COC1OC(COC(C)=O)C(OC(C)=O)C(OC(C)=O)C1NC(C)=O)NC(=O)OCc1ccccc1 (stereo unspecified)
- T/C (dose: 50.0 mg/kg/injection, schedule: Q04DX002 (ip), vehicle: Klucel (hydroxypropylcellulose) (HPC)): 98 % of control
- T/C (dose: 100.0 mg/kg/injection, schedule: Q04DX002 (ip), vehicle: Klucel (hydroxypropylcellulose) (HPC)): 91 % of control
- T/C (dose: 200.0 mg/kg/injection, schedule: Q04DX002 (ip), vehicle: Klucel (hydroxypropylcellulose) (HPC)): 98 % of control

SMILES: CCOC(=O)/C=C(\C)N(C(=O)N(CCCl)N=O)c1ccccc1
- T/C (dose: 0.12 mg/kg/injection, schedule: Q01DX009 (ip), vehicle: Klucel (hydroxypropylcellulose) (HPC)): 118 % of control
- T/C (dose: 0.5 mg/kg/injection, schedule: Q01DX009 (ip), vehicle: Klucel (hydroxypropylcellulose) (HPC)): 159 % of control
- T/C (dose: 1.0 mg/kg/injection, schedule: Q01DX001 (ip), vehicle: carboxymethylcellulose (CMC)): 103 % of control
- T/C (dose: 1.0 mg/kg/injection, schedule: Q01DX009 (ip), vehicle: Klucel (hydroxypropylcellulose) (HPC)): 232 % of control
- T/C (dose: 2.0 mg/kg/injection, schedule: Q01DX001 (ip), vehicle: carboxymethylcellulose (CMC)): 103 % of control and 119 % of control
- T/C (dose: 4.0 mg/kg/injection, schedule: Q01DX001 (ip), vehicle: carboxymethylcellulose (CMC)): 109 % of control
- T/C (dose: 6.0 mg/kg/injection, schedule: Q01DX009 (ip), vehicle: carboxymethylcellulose (CMC)): 161 % of control
- T/C (dose: 8.0 mg/kg/injection, schedule: Q01DX001 (ip), vehicle: carboxymethylcellulose (CMC)): 104 % of control
- T/C (dose: 8.8 mg/kg/injection, schedule: Q01DX009 (ip), vehicle: carboxymethylcellulose (CMC)): 163 % of control
- T/C (dose: 13.0 mg/kg/injection, schedule: Q01DX009 (ip), vehicle: Klucel (hydroxypropylcellulose) (HPC)): 120 % of control
- T/C (dose: 13.3 mg/kg/injection, schedule: Q01DX009 (ip), vehicle: carboxymethylcellulose (CMC)): 121 % of control
- T/C (dose: 15.0 mg/kg/injection, schedule: Q01DX001 (ip), vehicle: carboxymethylcellulose (CMC)): 153 % of control
- T/C (dose: 20.0 mg/kg/injection, schedule: Q01DX009 (ip), vehicle: carboxymethylcellulose (CMC)): 110 % of control
- T/C (dose: 30.0 mg/kg/injection, schedule: Q01DX001 (ip), vehicle: carboxymethylcellulose (CMC)): 104 % of control and 231 % of control and 86 % of control
- T/C (dose: 30.0 mg/kg/injection, schedule: Q01DX009 (ip), vehicle: Klucel (hydroxypropylcellulose) (HPC)): 90 % of control
- T/C (dose: 30.0 mg/kg/injection, schedule: Q01DX009 (ip), vehicle: carboxymethylcellulose (CMC)): 100 % of control
- T/C (dose: 45.0 mg/kg/injection, schedule: Q01DX001 (ip), vehicle: carboxymethylcellulose (CMC)): 155 % of control
- T/C (dose: 60.0 mg/kg/injection, schedule: Q01DX001 (ip), vehicle: carboxymethylcellulose (CMC)): 109 % of control and 204 % of control
- T/C (dose: 120.0 mg/kg/injection, schedule: Q01DX001 (ip), vehicle: carboxymethylcellulose (CMC)): 114 % of control

SMILES: c1ccc(C(=NN(CCN(N=C(c2ccccc2)c2ccccc2)c2ccccc2)c2ccccc2)c2ccccc2)cc1
- T/C [1]: 101 % of control
- T/C [8]: 92 % of control
- T/C [9]: 86 % of control
- T/C [10]: 92 % of control

SMILES: CCC1CN1P1(=O)OCC(C)(C(=O)OC)CO1 (stereo unspecified)
- T/C [8]: 101 % of control
- T/C [9]: 108 % of control
- T/C [10]: 101 % of control

SMILES: CCCNC(=O)Nc1ccc(OC)cc1Cl
- T/C [2]: 93 % of control
- T/C [4]: 93 % of control
- T/C [6]: 93 % of control

SMILES: Cc1c([N+](=O)[O-])cc(C(C)(C)C)c(OC(=O)Nc2ccccc2)c1[N+](=O)[O-]
- T/C (dose: 12.5 mg/kg/injection, schedule: Q04DX003 (ip), vehicle: Klucel (hydroxypropylcellulose) (HPC)): 93 % of control
- T/C (dose: 25.0 mg/kg/injection, schedule: Q04DX003 (ip), vehicle: Klucel (hydroxypropylcellulose) (HPC)): 106 % of control
- T/C (dose: 50.0 mg/kg/injection, schedule: Q04DX003 (ip), vehicle: Klucel (hydroxypropylcellulose) (HPC)): 95 % of control

SMILES: Cc1ccc2[nH]c3cc4ccncc4cc3c2c1
- T/C (dose: 100.0 mg/kg/injection, schedule: Q01DX001 (ip), vehicle: Klucel (hydroxypropylcellulose) (HPC)): 89 % of control
- T/C (dose: 200.0 mg/kg/injection, schedule: Q01DX001 (ip), vehicle: Klucel (hydroxypropylcellulose) (HPC)): 94 % of control
- T/C (dose: 400.0 mg/kg/injection, schedule: Q01DX001 (ip), vehicle: Klucel (hydroxypropylcellulose) (HPC)): 93 % of control

SMILES: Nc1cc(Cl)ccc1Oc1ccc(Cl)cc1
- T/C (dose: 37.5 mg/kg/injection, schedule: Q01DX009 (ip), vehicle: Klucel (hydroxypropylcellulose) (HPC)): 103 % of control
- T/C (dose: 75.0 mg/kg/injection, schedule: Q01DX009 (ip), vehicle: Klucel (hydroxypropylcellulose) (HPC)): 98 % of control
- T/C (dose: 150.0 mg/kg/injection, schedule: Q01DX009 (ip), vehicle: Klucel (hydroxypropylcellulose) (HPC)): 95 % of control

SMILES: Cc1ccc(C)c(-n2c(C)nc3ccccc3c2=O)c1
- T/C [2]: 86 % of control
- T/C [4]: 100 % of control
- T/C [6]: 91 % of control

SMILES: C=C(CCC(=O)OC)C1=C(C)CC2OC(=O)C(=C)C2C1 (stereo unspecified)
- T/C (dose: 50.0 mg/kg/injection, schedule: Q04DX002 (ip), vehicle: saline): 120 % of control
- T/C (dose: 100.0 mg/kg/injection, schedule: Q04DX002 (ip), vehicle: saline): 113 % of control
- T/C (dose: 200.0 mg/kg/injection, schedule: Q04DX002 (ip), vehicle: saline): 100 % of control

SMILES: O=C1CC(C(=O)O)C2(CCCCC2)O1 (stereo unspecified)
- T/C [11]: 104 % of control
- T/C [12]: 101 % of control
- T/C [13]: 101 % of control

SMILES: Nc1nc(N)c(N=O)c(Nc2ccc(Br)cc2)n1
- T/C (dose: 60.0 mg/kg/injection, schedule: Q01DX Z (ip), vehicle: methylcellulose (MC)): 108 % of control
- T/C (dose: 120.0 mg/kg/injection, schedule: Q01DX Z (ip), vehicle: methylcellulose (MC)): 103 % of control

SMILES: CCCCOCCOC(=O)C1OC1(C)c1ccccc1 (stereo unspecified)
- T/C [11]: 100 % of control
- T/C [12]: 102 % of control
- T/C [13]: 106 % of control

SMILES: Cc1ccccc1NP1(=O)OCCCN1Cc1ccc(Cl)cc1 (stereo unspecified)
- T/C [1]: 106 % of control
- T/C [8]: 102 % of control
- T/C [9]: 106 % of control
- T/C [10]: 100 % of control

SMILES: COc1ccc2c(c1)C1CCCCC1SCC2=O (stereo unspecified)
- T/C (dose: 100.0 mg/kg/injection, schedule: Q01DX001 (ip), vehicle: other): 100 % of control
- T/C (dose: 200.0 mg/kg/injection, schedule: Q01DX001 (ip), vehicle: other): 96 % of control
- T/C (dose: 400.0 mg/kg/injection, schedule: Q01DX001 (ip), vehicle: other): 96 % of control

SMILES: CC(NC(=O)C(CCC(=O)NCC(=O)O)NC(=O)C(N)Cc1ccc(O)cc1)C(=O)NCC(=O)NC(Cc1ccc(O)cc1)C(=O)NC(CCC(=O)NCC(=O)O)C(=O)NC(C)C(=O)NCC(=O)NCC(=O)O (stereo unspecified) (H-YE(Gly)AGYE(Gly)AGG-OH; configuration not given here)
- T/C [1]: 92 % of control
- T/C [8]: 92 % of control
- T/C [9]: 93 % of control

SMILES: CC(=O)Nc1ccc(Oc2ccccc2)cc1
- T/C (dose: 50.0 mg/kg/injection, schedule: Q01DX009 (ip), vehicle: Klucel (hydroxypropylcellulose) (HPC)): 102 % of control
- T/C [2]: 101 % of control
- T/C [3]: 95 % of control and 101 % of control
- T/C [4]: 106 % of control
- T/C [5]: 97 % of control and 100 % of control
- T/C [7]: 102 % of control
